Entries after “also recorded” stand apart in the source; their conditions may differ. Like-named read-outs stand apart in the source and are kept apart here.
How the values were obtained:
Aqueous solubility test = assay type: physicochemical; details: for solubility: thermodynamic from solid
Experimental: The pH of the mixtures was held constant during the study. Excess amounts or a known amount of each component are added to 1 or 0.5 ml of buffer solution and the mixtures were stirred at rt for 48 hours or less, filtered (0.45 um Millipore) and analyzed by HPLC.

[1] = Metabolic stability assay; assay type: in vitro ADME; details: human liver homogenate or microsomes
Experimental: The in vitro metabolic stability of the parent compounds was determined for exemplified compounds using human liver microsome and homogenate incubations. The incubation time points used with or without appropriate cofactors were 0 min and 60 min. Samples were collected at both time points and substrates were detected using LC/PDA/TOF-MS. In vitro metabolic stability (% remaining after 60 min in human liver homogenate or microsomes) of the compounds were calculated and the results are summarized in Table 4.

[2] = target: T1, recombinant human 17β-HSD2 (Homo sapiens, UniProt P37059); assay: Inhibition of recombinant human 17β-HSD2; assay type: biochemical; details: inhibitor 1 μM; 50 nM estradiol, 1 mM NADH, 30 min at RT
T1 construct: made in house; host or cells: Sd9 (Sf9) insect cells, baculovirus (Bac to Bac Expression System)
T1 sequence (P37059 1-387): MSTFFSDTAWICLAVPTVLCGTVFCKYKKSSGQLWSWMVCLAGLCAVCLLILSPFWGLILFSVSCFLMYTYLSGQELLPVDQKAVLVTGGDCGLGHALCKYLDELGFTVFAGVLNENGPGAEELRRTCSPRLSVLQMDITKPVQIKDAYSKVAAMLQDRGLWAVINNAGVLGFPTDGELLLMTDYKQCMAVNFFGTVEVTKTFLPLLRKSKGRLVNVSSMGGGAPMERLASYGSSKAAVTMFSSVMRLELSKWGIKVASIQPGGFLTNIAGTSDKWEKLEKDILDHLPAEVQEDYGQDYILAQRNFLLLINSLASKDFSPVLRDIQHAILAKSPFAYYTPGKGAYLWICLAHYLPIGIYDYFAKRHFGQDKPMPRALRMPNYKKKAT
Experimental: 17β-HSD2 Production and Isolation:
Similarly to 17β-HSD1 the Recombinant baculovirus was generated by the “Bac to Bac Expression System” (Invitrogen). Recombinant bacmid was transfected to Sd9 insect cells using “Cellfectin Reagent” (Invitrogen). 60 h later cells were harvested and supernatant were fractionated by the following protocol: • cells were dissolved into 40 ml of A-buffer (40 mM TRIS, pH8.0, 20% glycerol, 20 μM NAD, 0.4 mM PMSF, 150 mM NaCl, 0.5% dodecyl-β-maltoside+protease inhibitor cocktail) • cells were sonicated • lysate was incubated on ice for 15 min • lysate was centrifuged 5000 rpm 15 min, +4° C. • centrifugation of the supernatant 180 000 g 30 min, +4° C. • pellet was dissolved into 8 ml of A-buffer • not resuspended material was removed by centrifugation 5000 rpm 15 min, +4° C. • the clear supernatant was divided into 100 μl aliquots and were stored frozen until determination of enzymatic activity.
The amount of 17β-HSD2 was analysed by immunoblotting and total protein concentration of each extract batch was determined.
Assay—Inhibition of Recombinant Human 17β-HSD2:
Protein homogenate (4 μg/ml) was incubated in 20 mM KH2PO4 pH 8.5 with 50 nM estradiol (including 800 000 cpm/ml of ^3H-estradiol) and 1 mM […] for 30 min at RT, in the presence of the potential inhibitor at concentrations 1 μM or 0.1 μM. Inhibitor stock solutions were prepared in DMSO. Final concentration of DMSO was adjusted to 1% in all samples. The enzyme reaction was stopped by addition of 10% trichloroacetic acid (final concentration). Samples were centrifuged in a microtiter plate at 4000 rpm for 10 min. Supernatants were applied to reverse phase HPLC on a Waters Symmetry C18 column, equipped with a Waters Sentry Guard column. […] Radioactivity was monitored in the eluate by a Packard Flow Scintillation Analyzer. Total radioactivity for estrone and estradiol were determined in each sample and percent conversion of estradiol to estrone was calculated according to the following formula:
(§1) [formula] Percent inhibition was calculated flowingly: % inhibition=100−% conversion

[3] = target: T2, recombinant human 17β-HSD1 (Homo sapiens, UniProt P14061); assay: Inhibition of recombinant human 17β-HSD1; assay type: biochemical; details: inhibitor 1 μM; 30 nM estrone, 1 mM NADPH, 30 min at RT; read-out: 17β-HDS1 Inhibition % at 1 μM
T2 construct: made in house; host or cells: Sd9 (Sf9) insect cells, baculovirus (Bac to Bac Expression System)
T2 sequence (P14061 1-328): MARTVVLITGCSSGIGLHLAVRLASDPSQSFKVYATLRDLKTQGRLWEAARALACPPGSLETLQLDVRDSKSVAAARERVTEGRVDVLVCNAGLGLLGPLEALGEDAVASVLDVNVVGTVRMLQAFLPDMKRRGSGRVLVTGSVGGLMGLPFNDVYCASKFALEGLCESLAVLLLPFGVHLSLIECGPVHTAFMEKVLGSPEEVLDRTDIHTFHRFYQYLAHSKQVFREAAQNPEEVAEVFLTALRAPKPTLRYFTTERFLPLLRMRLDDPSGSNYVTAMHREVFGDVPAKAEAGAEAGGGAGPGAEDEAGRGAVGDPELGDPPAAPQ
Experimental: 17β-HSD1 Production and Isolation:
Recombinant baculovirus was generated by the “Bac to Bac Expression System” (Invitrogen). Recombinant bacmid was transfected to Sd9 insect cells using “Cellfectin Reagent” (Invitrogen). 60 h later cells were harvested; the microsomal fraction was isolated as described by Puranen, T. J., Poutanen, M. H., Peltoketo, H. E., Vihko, P. T. and Vihko, R. K. (1994) Site-directed mutagenesis of the putative active site of human 17β-hydroxysteroid dehydrogenase type 1. Biochem. J. 304: 289-293. Aliquots were stored frozen until determination of enzymatic activity.
Assay—Inhibition of Recombinant Human 17β-HSD1:
Protein homogenate (0.1 μg/ml) was incubated in 20 mM KH2PO4 pH 7.4 with 30 nM estrone (including 800 000 cpm/ml of ^3H-estrone) and 1 mM NADPH for 30 min at RT, in the presence of the potential inhibitor at concentrations 1 μM or 0.1 μM. Inhibitor stock solutions were prepared in DMSO. Final concentration of DMSO was adjusted to 1% in all samples. The enzyme reaction was stopped by addition of 10% trichloroacetic acid (final concentration). Samples were centrifuged in a microtiter plate at 4000 rpm for 10 min. Supernatants were applied to reverse phase HPLC on a Waters Symmetry C18 column, equipped with a Waters Sentry Guard column. Isocratic HPLC runs were performed at RT at a flow rate of 1 ml/min in acetonitrile:water 48:52 as running solvent. Radioactivity was monitored in the eluate by a Packard Flow Scintillation Analyzer. Total radioactivity for estrone and estradiol were determined in each sample and percent conversion of estrone to estradiol was calculated according to the following formula:
as §1

SMILES | aqueous solubility (in words) (Aqueous solubility test; Table 5) | In vitro metabolic stability, % remaining after 60 min [1] | inhibition at 1 µM [2] | inhibition at 1 µM [3] | further results
CO/N=C1\C[C@@H](CCC(=O)Nc2ncc(C)s2)C2C3CCc4cc(OP(=O)(O)O)c(C(C)(C)C)cc4C3CC[C@]12C (stereo partly drawn) [Compound 1] | improved aqueous solubility |  |  |  | 
CO/N=C1\C[C@@H](CCC(=O)Nc2ncc(C)s2)C2C3CCc4cc(OP(=O)([O-])[O-])c(C(C)(C)C)cc4C3CC[C@]12C.[Na+].[Na+] (stereo partly drawn) [Compound 1a] |  |  |  |  | aqueous solubility (in words) (Aqueous solubility test; Table 5, disodium salt): improved aqueous solubility; also recorded: significant aqueous solubility; Aqueous solubility, buffer at pH 7.4 (Aqueous solubility test; buffer at pH 7.4, rt): over 32 mg/ml
CO/N=C1\C[C@@H](CCC(=O)Nc2ncc(C)s2)C2C3CCc4cc(OC(=O)CN(C)C)c(C(C)(C)C)cc4C3CC[C@]12C.Cl (stereo partly drawn) [Compound 4a, (13S,15R)-2-(tert-butyl)-17[(E)-methoxyimino]-13-methyl-15-(3-((5-methylthiazol-2-yl)amino)-3-oxopropyl)-7,8,9,11,12,13,14,15,16,17-decahydro-6H-cyclopenta[a]phenanthren-3-yl dimethylglycinate hydrochloride] | improved aqueous solubility |  |  |  | solubility (Aqueous solubility test; aqueous buffer, buffer at pH 7.4, rt, read-out: Aqueous solubility, buffer at pH 7.4): 7.99 µg/mL
CO/N=C1\C[C@@H](CCC(=O)Nc2ncc(C)s2)C2C3CCc4cc(OCOP(=O)(O)O)c(C(C)(C)C)cc4C3CC[C@]12C (stereo partly drawn) [Compound 15, (((13S,15R)-2-(tert-butyl)-17[(E)-methoxyimino]-13-methyl-15-(3-((5-methylthiazol-2-yl)amino)-3-oxopropyl)-7,8,9,11,12,13,14,15,16,17-decahydro-6H-cyclopenta[a]phenanthren-3-yl)oxy)methyl dihydrogen phosphate] |  |  |  |  | aqueous solubility (in words) (Aqueous solubility test): significant aqueous solubility
CO/N=C1\C[C@@H](CCC(=O)Nc2ncc(C)s2)C2C3CCc4cc(OCOP(=O)(O)O)c(C(C)(C)C)cc4C3CC[C@]12C.[Na].[Na] (stereo partly drawn) [Compound 15a, (((13S,15R)-2-(tert-butyl)-17[(E)-methoxyimino]-13-methyl-15-(3-((5-methylthiazol-2-yl)amino)-3-oxopropyl)-7,8,9,11,12,13,14,15,16,17-decahydro-6H-cyclopenta[a]phenanthren-3-yl)oxy)methyl dihydrogen phosphate disodium salt] | improved aqueous solubility |  |  |  | solubility (Aqueous solubility test; buffer solution, aqueous buffer, buffer at pH 7.4, rt, read-out: Aqueous solubility, buffer at pH 7.4): > 30000 µg/mL
Cc1cnc(NC(=O)CC[C@@H]2CC(=O)[C@@]3(C)CCC4c5ccc(O)cc5CCC4C23)s1 (stereo partly drawn) [VII, reference compound] |  | 13% |  |  | 
CO/N=C1\C[C@@H](CCC(=O)Nc2ncc(C)s2)C2C3CCc4cc(O)c(C(C)(C)C)cc4C3CC[C@]12C (stereo partly drawn) [VIV-1, 3-{(13S,15R)-2-tert-Butyl-3-hydroxy-17-[(E)-methoxyimino]-13-methyl-7,8,9,11,12,13,14,15,16,17-decahydro-6H-cyclopenta[a]phenanthren-15-yl}-N-(5-methylthiazol-2-yl) propanamide] |  | 100% | 14% | 86% | solubility (Aqueous solubility test; pH 7.4, aqueous buffer): < 0.52 µg/mL
Cc1cnc(NC(=O)CC[C@@H]2C/C(=N\O)[C@@]3(C)CCC4c5cc(C(C)(C)C)c(O)cc5CCC4C23)s1 (stereo partly drawn) [VIV-3, 3-{(13S,15R)-2-tert-Butyl-3-hydroxy-17-[(E)-hydroxyimino]-13-methyl-7,8,9,11,12,13,14,15,16,17-decahydro-6H-cyclopenta[a]phenanthren-15-yl}-N-(5-methylthiazol-2-yl)propanamide] |  | 100% | 41% | 95% | 
CCO/N=C1\C[C@@H](CCC(=O)Nc2ncc(C)s2)C2C3CCc4cc(O)c(C(C)(C)C)cc4C3CC[C@]12C (stereo partly drawn) [VIV-4, 3-{(13S,15R)-2-tert-Butyl-17-[(E)-ethoxyimino]-3-hydroxyl-13-methyl-7,8,9,11,12,13,14,15,16,17-decahydro-6H-cyclopenta[a]phenanthren-15-yl}-N-(5-methylthiazol-2-yl)propanamide] |  |  | 8% | 89% | 
